PMC6956158, “In Vitro and In Vivo Assessment of Metabolic Drug Interaction Potential of Dutasteride with Ketoconazole” (Pharmaceutics, 2019)
Where two headings read alike, the source gives them in different places.

How the values were obtained:
[1] = In vivo pharmacokinetic study in rats, intravenous DUT without or with intravenous KET; set-up: species or system rat; details: for AUC(0-inf) / half-life / clearance / Vd: male, Sprague-Dawley, rat, iv, 2.5 mg/kg; for AUC(0-inf) / half-life: n = 4; for Vd: n = 4, read-out: Vss
Text: The animal experiment protocols used in the present study were approved by the Pusan National University-Institutional Animal Care and Use Committee for scientific care and ethical procedures (Busan, Korea; approval date: 01/05/2018; approval number: PNU-2018-1848). Male Sprague–Dawley rats (8-week-old; approximately 250 g) were purchased from DBL Co., Ltd. (Incheon, Korea). The rats were acclimatized in a clean room of the Laboratory Animal Center of Pusan National University (Busan, Korea) for 1 week. Then, they were fasted for 12 h prior to the pharmacokinetic experiment and then anesthetized by intramuscular injection of Zoletil at a dose of 20 mg/kg. The femoral vein and artery of the rats were cannulated with a polyethylene tube (BD Medical; Franklin Lakes, NJ, USA). At approximately 4–6 h after the surgery for cannulation, an intravenous dose of DUT (2.5 mg/kg) simultaneously with or without intravenous KET (20 mg/kg) or an oral dose of DUT (5 mg/kg) simultaneously with or without intravenous KET (20 mg/kg) was administered to the rats. Drugs were dissolved in a vehicle consisting of dimethyl sulfoxide, ethanol, and polyethylene glycol 400 at a ratio of 10:5:85 (v/v/v). Blood (approximately 200 μL) was collected in heparin pre-treated microcentrifuge tubes via the femoral artery at 0, 1, 5, 15, 30, 60, 120, 180, 240, 360, 480, and 1200 min after the intravenous dose and at 0, 5, 15, 30, 60, 120, 150, 180, 240, 360, 480, and 1200 min after the oral dose. Following centrifugation of the blood samples at 3000× g at 4 °C for 10 min [19], 100 μL aliquots of plasma were stored at −80 °C.
The half maximal inhibitory concentration (IC50) of KET for the inhibition of the DUT metabolism was determined by the nonlinear regression analysis (GraphPad Prism ver. 5.01; GraphPad Software Inc., San Diego, CA, USA) based on the following Hill equation: y = Min + Max−Min/1 + (x/IC50)^-P where Max and Min are the initial and final y value, respectively, and the exponent P represents the Hill coefficient. Peak plasma concentration (Cmax) and time to reach Cmax (Tmax) were read directly from the observed data. Non-compartmental analysis was conducted to estimate pharmacokinetic parameters such as total area under plasma concentration versus time curve from time zero to time of last sampling (AUClast), total area under plasma concentration versus time curve from time zero to infinity (AUCinf), total plasma clearance (CL), volume of distribution at steady state (Vss), and terminal half-life (t1/2) using the NCA200 and 201 models of WinNonlin ver. 3.1 (Certara USA Inc., Princeton, NJ, USA).

[2] = NADPH-dependent metabolism (disappearance) of DUT in rat liver microsomes; assay type: in vitro ADME; details: RLM
Protocol: In vitro metabolism studies in RLM and HLM were conducted as previously reported with slight modifications. To investigate the NADPH-dependent metabolism (via phase I enzymes including CYPs) of DUT in RLM and HLM, the disappearance of DUT at various concentrations ranging from 1 to 100 μM in the presence of NADPH was determined in RLM and HLM. The substrate (DUT) concentration ([S]; μM) versus the initial metabolic rate (V; pmol/min/mg protein) data were interpreted based on the Michaelis–Menten kinetics, and relevant parameters were estimated by nonlinear regression analysis (GraphPad Prism ver. 5.01; GraphPad Software, San Diego, CA, USA) based on the following Michaelis–Menten equation: V = Vmax × [S]/Km + [S] where Vmax and Km are the maximal metabolic rate and Michaelis–Menten constant, respectively. The intrinsic metabolic clearance (CLint) was calculated by dividing Vmax by Km. The unbound Km (Km,u) was calculated as the Km multiplied by the unbound fraction in microsomes (fu,mic). The unbound CLint (CLint,u) was calculated as the CLint divided by the fu,mic.
To investigate the metabolic interaction potential between DUT and KET, the disappearance of DUT (5 μM) in RLM and HLM was determined under the absence and presence of KET at various concentrations ranging from 1 to 5000 nM. A microsomal reaction mixture was prepared as follows (total volume: 0.2 mL): 1 mM NADPH, 10 mM MgCl2, substrate (DUT), and inhibitor (KET), RLM or HLM (1 mg/mL), and 50 mM phosphate buffer. […] The unbound fractions of DUT in rat plasma, RLM, human plasma, and HLM were measured using a rapid equilibrium dialysis (RED) device (Thermo Fisher Scientific, Inc., Waltham, MA, USA) as described in a previous study. […] The fraction unbound was calculated as the ratio of the drug concentrations in the “buffer” chamber to those in the “sample” chamber. The blood-to-plasma concentration ratio (RB) of DUT was determined as described previously. […] The concentrations of DUT in the plasma sample were determined by the validated HPLC analysis.

type-2 5AR = tested on: type-2 5AR; set-up: method as in PMID 16964191, PMID 16719800; details: previous in vitro studies; cited from earlier work
[3] = plasma, intravenous DUT 2.5 mg/kg with intravenous KET 20 mg/kg
[4] = plasma, intravenous DUT 2.5 mg/kg, DUT alone

**Q.** Which hepatic extraction ratio ([1]; calculated as CLH/QH, QH 50–80 mL/min/kg) does the source give for `C[C@]12C=CC(=O)N[C@@H]1CC[C@@H]1[C@@H]2CC[C@]2(C)[C@@H](C(=O)Nc3cc(C(F)(F)F)ccc3C(F)(F)F)CC[C@@H]12` [DUT, Dutasteride] here?
**A.** The hepatic extraction ratio was 0.039–0.062.

**Q.** What about the AUC(0-inf) [1, 3] of the same compound?
**A.** Its AUC(0-inf) is 41800 ng·h/mL.

**Q.** And the half-life [1, 3]?
**A.** The half-life was 51 ± 5.98 h.

**Q.** And the clearance ([1]; plasma, intravenous DUT 2.5 mg/kg with intravenous KET 20 mg/kg, n = 4, read-out: CL)?
**A.** Its clearance is 1.02 ± 0.16 mL/min/kg.

**Q.** What about the Vd [1, 3] of the same compound?
**A.** The Vd was 4.41 ± 0.373 L/kg.

**Q.** What about the AUC(0-inf) [1, 4] of the same compound?
**A.** The AUC(0-inf) was 19100 ng·h/mL.

**Q.** What about the half-life [1, 4] of the same compound?
**A.** The half-life was 26.8 ± 3.27 h.

**Q.** What about the clearance ([1]; plasma, intravenous DUT 2.5 mg/kg, DUT alone, n = 4, read-out: CL) of the same compound?
**A.** Its clearance is 2.19 ± 0.16 mL/min/kg.

**Q.** What about the Vd [1, 4] of the same compound?
**A.** The Vd was 4.9 ± 0.326 L/kg.

**Q.** What about the clearance ([1]; whole blood, intravenous DUT 2.5 mg/kg, calculated as CL/RB, mean value, read-out: total blood clearance (CLB)) of the same compound?
**A.** The clearance was 3.08 mL/min/kg.

**Q.** What about the Vmax ([2]; DUT 1 to 100 μM, NADPH) of the same compound?
**A.** The Vmax was 114 ± 10 pmol/min/mg protein.

**Q.** What about the microsomal CLint ([2]; Sprague-Dawley, rat, rat liver microsomes, Vmax divided by Km) of the same compound?
**A.** The microsomal CLint was 3.45 ± 0.37 µL/min/mg.

**Q.** And the Km ([2]; rat, rat liver microsomes, DUT 1 to 100 μM, NADPH)?
**A.** The Km was 33.3 ± 3.6 µM.

**Q.** And the “more potent inhibition of type-2 5AR compared to finasteride” value (type-2 5AR)?
**A.** Its value is 2.5 fold.
